Source: PMC9861623, “New Ferulic Acid and Amino Acid Derivatives with Increased Cosmeceutical and Pharmaceutical Potential” (Pharmaceutics, 2022)
“And” between values parts separate entries of the source, which are not always exact repeats. Equal values may be shown once.

Key:
[1] = Thermogravimetric (TG) analysis, thermal stability; assay type: physicochemical; conditions: air atmosphere, 10 °C·min^−1
Description: Samples of 2–5 mg, loaded in aluminium crucibles, were heated from 30 °C to 600 °C at the heating rate of 10 °C·min^−1, in the air atmosphere (25 mL·min^−1) with nitrogen flow (10 mL·min^−1) as the purge gas.

[2] = Skin permeation in Franz diffusion cells; assay type: in vitro ADME, pig; conditions: 24 h, 10 mg as FA applied
Description: In the experiment, abdominal porcine skin coming from the local slaughterhouse was used. Pig skin was chosen because of its similar permeability to human skin [34, 35]. The fresh abdominal porcine skin was washed several times in PBS buffer pH 7.4. The skin of 0.5 mm in thickness was dermatomed and divided into 2 cm × 2 cm pieces. The skin samples were wrapped in aluminum foil and stored at −20 °C until use, not longer than 3 months. According to Badran et al., this storage time at this temperature is safe to keep skin barrier properties. Immediately before the experiment, the skin samples were slowly thawed at room temperature for 30 min and then were hydrated by PBS pH 7.4 [37, 38, 39, 40]. Such prepared skin was mounted on donor chamber. Only the undamaged skin pieces with an even thickness were chosen for experiments. The integrity of the skin was checked by impedance measurement using an LCRmeter4080 (Conrad Electronic, Hirschau, Germany), operated in parallel mode at an alternating frequency of 120 Hz (error at kΩ values < 0.5%). The tips of measuring probes were immersed in the donor and acceptor chamber containing PBS (pH 7.4), as described previously. Only skin samples of impedance > 3 kΩ were applied as such impedance is similar to the electrical resistance of human skin [42].
The concentration of FA and its derivatives in the acceptor fluid and in the fluid obtained by skin extraction after permeation experiment was assessed using liquid chromatography system (Knauer, Berlin, Germany) consisting of a model 2600 UV detector, Smartline model 1050 pump and Smartline model 3950 autosampler. HPLC was controlled by ClarityChrom 2009 software. The detector was operated at 280 nm. The separations were performed on 125 mm × 4 mm ID chromatographic column filled with Hyperisil ODS (C18), particle size 5 µm, in isocratic mode. The mobile phase consisted of acetonitrile, 1% acetic acid, and MeOH (47/47/6 v/v/v) and was pumped at flow rate of 1 mL min^−1. The column temperature was set at 25 °C, and the injection volume was 20 µL.
(§1) The permeation experiments were performed using Franz diffusion cells (Phoenix DB-6, ABL&E-JASCO, Wien, Austria). The diffusion was 1 cm^2. The volume of the acceptor chamber was 8 mL. This chamber was filled with PBS solution (pH 7.4). During experiment, a constant temperature of 37.0 ± 0.5 °C was maintained in each diffusion unit. The acceptor chamber content was stirred with a magnetic stirring bar at the same speed for all cells. The prepared pig skin was mounted on each donor chamber. As previously mentioned, only undamaged skin pieces with an even thickness were chosen for experiments. Thereafter, the hydrogel or emulsion vehicle/preparation in 1 g portion was put on the skin in donor cells. For comparison, 1 mL ethanolic solution containing either FA or its derivatives was applied to another donor chamber. The amount of the FA and its derivatives applied on the skin expressed as the mass of ferulic acid was 0.01 g and was the same for each carrier. The penetration experiments were carried out for 24 h. The samples were collected after 1 h, 2 h, 3 h, 4 h, 5 h, 6 h, 8 h, and 24 h. Aliquots of the acceptor fluid (0.5 mL) were withdrawn and to each acceptor chamber the same volume of fresh PBS solution was added. The FA and its derivatives’ concentrations in the acceptor fluid were measured by HPLC method (Section 2.6.2). The cumulative mass (µg·cm^−2) and penetration rate (µg·cm^−2·h^−1) were calculated. The acceptor fluid collected after 24 h of permeation was also measured for antioxidant activity and total polyphenol content (as described in Section 2.5.1 and Section 2.5.2).

[3] = Accumulation in the skin after 24 h permeation; assay type: in vitro ADME, pig; conditions: 24 h penetration, ethanol solution
Description: (§2) The accumulation of the FA and its derivatives in the skin after 24 h permeation process through the skin were determined using a modification of the methods described by Janus et al. and Taokaew et al.. After 24 h of permeation experiment, the skin samples were removed from the Franz diffusion cell, washed three times with 0.5% sodium lauryl sulfate solution and dried at room temperature. Next, after cutting out the diffusion area of each skin sample, the samples were immersed in 2 mL of absolute ethanol and continuously stirred at 300 rpm at room temperature for 24 h. The samples were then centrifuged, and clear solutions were collected and analyzed by HPLC method for the determination of FA and its derivatives. The accumulation of the active substance in the skin was calculated by dividing the amount of the drug remaining in the skin by a mass of skin sample and was expressed in mass active substance per mass of the skin (µg g^−1). For solution obtained after skin extraction, the antioxidant activity and total polyphenol content were also determined (as described in Section 2.5.1 and Section 2.5.2).

[4] = DPPH antioxidant activity of acceptor fluid after 24 h permeation; set-up: species or system pig; conditions: after 24 h penetration
Description: (§3) To determine the antioxidant capacity of ferulic acid and its derivatives the DPPH method was used. The analyses were performed using the Hitachi UV-Vis Spectrophotometer U-5100 at the wavelength λ = 517 nm. Trolox (6-hydroxy-2,5,7,8-tetramethylchroman-2-carboxylic acid) was used as a reference substance. The antioxidant activity was expressed as %RSA and mmol Trolox dm^−3. […]. Blank samples without antioxidant were prepared in the same way. The tubes were wrapped in aluminum foil and were sealed with a stopper and then incubated for 10 min at room temperature. After this time, spectrophotometric measurements were carried out in triplicate. For determination of antioxidant activity of the acceptor fluid after 24 h of permeation and solutions obtained by extraction of the skin obtained after penetration study, 0.15 mL samples of each solutions were separately added to 2.85 mL of DPPH solution and spectrophotometric measurements were performed. The antioxidant activity was expressed as mmol Trolox·dm^−3.
as §1

[5] = DPPH radical scavenging assay of the compounds
Description: as §3

[6] = n-octanol/water partition coefficient by shake flask method; assay type: physicochemical
Description: The n-octanol/water partition coefficient (log PO/W) was determined for ferulic acid and its derivatives by shake flask method. n-Octanol saturated with water and water saturated with n-octanol were prepared at 25 °C, 24 h prior to their use in the experiments. Then, a sample of 10 mg of compound was weighed with the accuracy of 0.01 mg in a 16 cm^3 screwed vial and dissolved in 5 cm^3 of n-octanol. Next, 5 cm^3 of water was added to the vial. The resulting two-phase mixture was kept in water bath shaker at 25 °C for 2 h and was strongly shaken to reach the partition equilibrium of the compound between the phases. Then the mixture was left unshaken for 30 min and 1.0 cm^3 of water phase was carefully taken out to centrifuge tube. The sample was next centrifuged for 10 min at 7500 rpm at 25 °C to ensure the most precise phase separation. The concentration of compound in water phase was then determined using HPLC method. The partition coefficient, log PO/W was calculated according to the formula: logPO/W=logC0V0−CWVW/CWVW where: C0—initial concentration of the compound in n-octanol, calculated based on the weighed mass of compound, mg·cm^−^3; V0—volume of n-octanol, cm^3; CW—concentration of the compound in water after partition equilibrium, mg·cm^−^3; VW—volume of water, cm^3.

[7] = DPPH antioxidant activity of solution obtained after skin extraction; set-up: species or system pig; conditions: after 24 h penetration
Description: as §3, §2

[8] = tested on: Murine fibroblasts (L929); experiment: Cytotoxicity, PrestoBlue resazurin-based cell viability assay; conditions: 2.0 mM, 24 h, PrestoBlue, normalized to control
Description: The cell biocompatibility was evaluated using a PrestoBlue HS Cell Viability Reagent (Thermo Fisher Scientific, MA USA) based on the reduction of the resazurin to highly fluorescent resorufin, of which the amount is directly correlated to the number of living cells. […] The cells without tested compounds were used as control. The interaction of tested compounds without cells and Prestoblue Reagent (blank wells) was excluded. After 24 h of treatment, optical microscopy imaging of L929 cells was performed using Smart Fluorescent Cell Analyzer Microscope JuLi (Seoul, Korea). Next, the PrestoBlue reagent (10 μL) was added to each well and incubated for 30 min. The fluorescence was measured using a spectrophotometric microplate reader (Infinite 200 Pro, Tecan, Männedorf, Switzerland) at ex/em: 560/594 nm. The readings were acquired from at least three independent experiments (each conducted in triplicate) and normalized to the control (100% viability).

[9] = molar ratio antioxidant:DPPH 0.1, 10 min
[10] = molar ratio antioxidant:DPPH 1.0, 10 min
[11] = molar ratio antioxidant:DPPH 2.0, 10 min

Question: Which results are given for `CCCOC(=O)[C@@H]1CCCN1.COc1cc(/C=C/C(=O)O)ccc1O` [PPr[FA], L-proline propyl ester ferulate]?
Answer: Td onset, the onset of decomposition ([1]; TG): 122.8 °C; Td max, temperature of the fastest mass loss of the sample ([1]; TG/DTG): 148.7 °C; Cumulative Permeation Mass ([2]; from emulsion): 128.80 ± 19.86 µg FA·cm^−2 and 128.80 ± 19.86 a µg FA·cm^−2; Cumulative Permeation Mass ([2]; from hydrogel): 396.86 ± 42.13 µg FA·cm^−2 and 396.86 ± 42.13 b µg FA·cm^−2; Cumulative Permeation Mass ([2]; from solution in 70% (v/v) ethanol): 427.00 ± 4.674 µg FA·cm^−2 and 427.00 ± 4.67 b µg FA·cm^−2; Accumulation in the skin compared to pure FA [3]: accumulated in a significantly smaller amount compared to pure FA; DPPH antioxidant activity of the acceptor fluid ([4]; emulsion): 0.061 ± 0.007 mmol Trolox dm^−3 and 0.061 ± 0.007 a mmol Trolox dm^−3; DPPH antioxidant activity of the acceptor fluid ([4]; ethanol solution): 0.094 ± 0.002 a mmol Trolox dm^−3; DPPH antioxidant activity of the acceptor fluid ([4]; hydrogel): 0.075 ± 0.012 mmol Trolox dm^−3 and 0.075 ± 0.012 a mmol Trolox dm^−3; Antioxidant activity %RSA [5, 9]: 19.3 ± 0.001 %RSA and 19.3 ± 0.001 a %RSA; Antioxidant activity, Trolox equivalents [5, 9]: 0.115 ± 0.001 mmol Trolox dm^−3 and 0.115 ± 0.001 a mmol Trolox dm^−3; Antioxidant activity %RSA [5, 10]: 79.6 ± 0.001 b %RSA; Antioxidant activity, Trolox equivalents [5, 10]: 0.697 ± 0.001 b mmol Trolox dm^−3; Antioxidant activity %RSA [5, 11]: 87.7 ± 0.001 %RSA and 87.7 ± 0.001 b %RSA; Antioxidant activity, Trolox equivalents [5, 11]: 0.775 ± 0.001 mmol Trolox dm^−3 and 0.775 ± 0.001 b mmol Trolox dm^−3; Share of compound partitioned to n-octanol ([6]; from log PO/W): 74%; log PO/W ([6]; n-octanol/water, shake flask, 25 °C): 0.447 ± 0.022; DPPH antioxidant activity of the solution obtained after skin extraction ([7]; emulsion): 0.198 ± 0.006 a mmol Trolox dm^−3; DPPH antioxidant activity of the solution obtained after skin extraction ([7]; ethanol solution): 0.259 ± 0.007 a mmol Trolox dm^−3; DPPH antioxidant activity of the solution obtained after skin extraction ([7]; hydrogel): 0.351 ± 0.036 ab mmol Trolox dm^−3; L929 viability [8]: 78.56 ± 2.73%
